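Tested at 5 concentrations; 48 h exposure; 96-well plates; endpoints linearly interpolated, else capped at highest concentration. TGI: concentration producing complete growth inhibition.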
Key:
Test in all cases: NCI tumour cell line growth inhibition, 48 h
786-0 renal = tested on: 786-0 renal
A498 renal = tested on: A498 renal
A549 NSCLC = tested on: A549 NSCLC
ACHN renal = tested on: ACHN renal
CAKI-1 renal = tested on: CAKI-1 renal
CCRF-CEM leukemia = tested on: CCRF-CEM leukemia
COLO 205 colon = tested on: COLO 205 colon
DLD-1 colon = tested on: DLD-1 colon
DMS 114 small cell lung = tested on: DMS 114 small cell lung
DMS 273 small cell lung = tested on: DMS 273 small cell lung
HCC-2998 colon = tested on: HCC-2998 colon
HCT-116 colon = tested on: HCT-116 colon
HCT-15 colon = tested on: HCT-15 colon
HL-60(TB) leukemia = tested on: HL-60(TB) leukemia
HOP-18 NSCLC = tested on: HOP-18 NSCLC
HOP-62 NSCLC = tested on: HOP-62 NSCLC
IGROV1 ovarian = tested on: IGROV1 ovarian
K-562 leukemia = tested on: K-562 leukemia
KM12 colon = tested on: KM12 colon
KM20L2 colon = tested on: KM20L2 colon
LXFL 529 NSCLC = tested on: LXFL 529 NSCLC
M14 melanoma = tested on: M14 melanoma
M19-MEL melanoma = tested on: M19-MEL melanoma
MALME-3M melanoma = tested on: MALME-3M melanoma
MOLT-4 leukemia = tested on: MOLT-4 leukemia
NCI-H226 lung = tested on: NCI-H226 lung
NCI-H460 lung = tested on: NCI-H460 lung
NCI-H522 lung = tested on: NCI-H522 lung
OVCAR-3 ovarian = tested on: OVCAR-3 ovarian
OVCAR-4 ovarian = tested on: OVCAR-4 ovarian
OVCAR-8 ovarian = tested on: OVCAR-8 ovarian
RPMI-8226 leukemia = tested on: RPMI-8226 leukemia
RXF 393 renal = tested on: RXF 393 renal
RXF-631 renal = tested on: RXF-631 renal
SF-268 CNS = tested on: SF-268 CNS
SF-539 CNS = tested on: SF-539 CNS
SK-MEL-2 melanoma = tested on: SK-MEL-2 melanoma
SK-MEL-28 melanoma = tested on: SK-MEL-28 melanoma
SK-MEL-5 melanoma = tested on: SK-MEL-5 melanoma
SK-OV-3 ovarian = tested on: SK-OV-3 ovarian
SN12C renal = tested on: SN12C renal
SNB-19 CNS = tested on: SNB-19 CNS
SNB-75 CNS = tested on: SNB-75 CNS
SNB-78 CNS = tested on: SNB-78 CNS
SR leukemia = tested on: SR leukemia
SW-620 colon = tested on: SW-620 colon
TK-10 renal = tested on: TK-10 renal
U251 CNS = tested on: U251 CNS
UACC-257 melanoma = tested on: UACC-257 melanoma
UACC-62 melanoma = tested on: UACC-62 melanoma
UO-31 renal = tested on: UO-31 renal

With `CC(=O)OC(=O)O/C=C\CCl` the TGI (786-0 renal) was > 100 µM, the TGI (A498 renal) was > 100 µM and the TGI (A549 NSCLC) was > 100 µM. For the same molecule, the TGI (ACHN renal) was > 100 µM, the TGI (CAKI-1 renal) was > 100 µM and the TGI (CCRF-CEM leukemia) was > 100 µM. For the same molecule, the TGI (COLO 205 colon) was > 100 µM, the TGI (DLD-1 colon) was > 100 µM and the TGI (DMS 114 small cell lung) was > 100 µM. The TGI (DMS 273 small cell lung) was > 100 µM, the TGI (HCC-2998 colon) was > 100 µM and the TGI (HCT-116 colon) was > 100 µM. The TGI (HCT-15 colon) was > 100 µM, the TGI (HL-60(TB) leukemia) was > 100 µM and the TGI (HOP-18 NSCLC) was > 100 µM. The TGI (HOP-62 NSCLC) was > 100 µM, the TGI (IGROV1 ovarian) was > 100 µM and the TGI (K-562 leukemia) was > 100 µM. The TGI (KM12 colon) was > 100 µM, the TGI (KM20L2 colon) was > 100 µM and the TGI (LXFL 529 NSCLC) was > 100 µM. The TGI (M14 melanoma) was > 100 µM, the TGI (M19-MEL melanoma) was > 100 µM and the TGI (MALME-3M melanoma) was > 100 µM. For the same molecule, the TGI (MOLT-4 leukemia) was > 100 µM, the TGI (NCI-H226 lung) was > 100 µM and the TGI (NCI-H460 lung) was > 100 µM. For the same molecule, the TGI (NCI-H522 lung) was 33.1 µM, the TGI (OVCAR-3 ovarian) was > 100 µM and the TGI (OVCAR-4 ovarian) was > 100 µM. For the same molecule, the TGI (OVCAR-8 ovarian) was > 100 µM, the TGI (RPMI-8226 leukemia) was > 100 µM and the TGI (RXF 393 renal) was > 100 µM. For the same molecule, the TGI (RXF-631 renal) was > 100 µM, the TGI (SF-268 CNS) was > 100 µM and the TGI (SF-539 CNS) was > 100 µM. For the same molecule, the TGI (SK-MEL-2 melanoma) was > 100 µM, the TGI (SK-MEL-28 melanoma) was > 100 µM and the TGI (SK-MEL-5 melanoma) was > 100 µM. For the same molecule, the TGI (SK-OV-3 ovarian) was > 100 µM, the TGI (SN12C renal) was > 100 µM and the TGI (SNB-19 CNS) was > 100 µM. For the same molecule, the TGI (SNB-75 CNS) was > 100 µM, the TGI (SNB-78 CNS) was > 100 µM and the TGI (SR leukemia) was > 100 µM. For the same molecule, the TGI (SW-620 colon) was > 100 µM, the TGI (TK-10 renal) was > 100 µM and the TGI (U251 CNS) was > 100 µM. The TGI (UACC-257 melanoma) was > 100 µM, the TGI (UACC-62 melanoma) was > 100 µM and the TGI (UO-31 renal) was > 100 µM.
